Measurements: PubChem BioAssay AID248 (DTP/NCI, 2004)
Where “and” joins values, the source holds several entries; their conditions need not be identical. Equal values may be shown once. Toxic doses and inconclusive results are not listed. No stated cut-off is given here; in the data, active means T/C of 150% or more; inactive means T/C below 125%.

Test system: L1210 leukemia ip in BDF1 mice, survival T/C
Assay: NCI In Vivo Anticancer Drug Screen. Data for tumor model L1210 Leukemia (intraperitoneal) in B6D2F1 (BDF1) mice
Settings: endpoint: mean survival time, higher = longer survival
Procedure, shortened: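 Antitumor effect is assessed in tumor-bearing animals. Survival in the compound arm is compared with a vehicle-dosed control arm and expressed as their quotient.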

[1] = dose: 100.0 mg/kg/injection, schedule: Q04DX002 (ip), vehicle: Klucel (hydroxypropylcellulose) (HPC)
[2] = dose: 200.0 mg/kg/injection, schedule: Q04DX002 (ip), vehicle: Klucel (hydroxypropylcellulose) (HPC)
[3] = dose: 400.0 mg/kg/injection, schedule: Q04DX002 (ip), vehicle: Klucel (hydroxypropylcellulose) (HPC)
[4] = dose: 100.0 mg/kg/injection, schedule: Q04DX003 (ip), vehicle: Klucel (hydroxypropylcellulose) (HPC)
[5] = dose: 200.0 mg/kg/injection, schedule: Q04DX003 (ip), vehicle: Klucel (hydroxypropylcellulose) (HPC)
[6] = dose: 50.0 mg/kg/injection, schedule: Q01DX009 (ip), vehicle: saline with Tween-80
[7] = dose: 100.0 mg/kg/injection, schedule: Q01DX009 (ip), vehicle: saline with Tween-80
[8] = dose: 100.0 mg/kg/injection, schedule: Q04DX003 (ip), vehicle: saline with Tween-80
[9] = dose: 200.0 mg/kg/injection, schedule: Q04DX003 (ip), vehicle: saline with Tween-80
[10] = dose: 400.0 mg/kg/injection, schedule: Q04DX003 (ip), vehicle: Klucel (hydroxypropylcellulose) (HPC)
[11] = dose: 200.0 mg/kg/injection, schedule: Q01DX009 (ip), vehicle: saline with Tween-80

Measured: T/C

O=[N+]([O-])c1cc2c(cc1Br)-c1ccccc1C2
inactive: dose: 100.0 mg/kg/injection, schedule: Q01DX005 (ip), vehicle: Klucel (hydroxypropylcellulose) (HPC) 98 % of control | [1] 93 % of control | dose: 200.0 mg/kg/injection, schedule: Q01DX005 (ip), vehicle: Klucel (hydroxypropylcellulose) (HPC) 94 % of control | [2] 111 % of control | dose: 400.0 mg/kg/injection, schedule: Q01DX005 (ip), vehicle: Klucel (hydroxypropylcellulose) (HPC) 122 % of control | [3] 117 % of control

O=C(NCCCN1CC1)C(=O)NNc1ccccc1
inactive: [4] 102 % of control | [5] 93 % of control

CCOC(=O)C1(CCOC(C)=O)CCCCC1=O (centres undefined)
inactive: dose: 100.0 mg/kg/injection, schedule: Q01DX001 (ip), vehicle: carboxymethylcellulose (CMC) 93 % of control | dose: 200.0 mg/kg/injection, schedule: Q01DX001 (ip), vehicle: carboxymethylcellulose (CMC) 93 % of control | dose: 400.0 mg/kg/injection, schedule: Q01DX001 (ip), vehicle: carboxymethylcellulose (CMC) 102 % of control

CC(=O)Nc1ccc(C(=O)O)c(OC(C)=O)c1
inactive: dose: 100.0 mg/kg/injection, schedule: Q01DX001 (ip), vehicle: saline with Tween-80 92 % of control | dose: 200.0 mg/kg/injection, schedule: Q01DX001 (ip), vehicle: saline with Tween-80 96 % of control | dose: 400.0 mg/kg/injection, schedule: Q01DX001 (ip), vehicle: saline with Tween-80 97 % of control

O=c1[nH]c(=O)n(C2OC(CO)C(O)C2O)cc1CCC(F)(F)F (centres undefined)
inactive: dose: 50.0 mg/kg/injection, schedule: Q01DX005 (ip), vehicle: saline 94 % of control | dose: 100.0 mg/kg/injection, schedule: Q01DX005 (ip), vehicle: saline 109 % of control | dose: 200.0 mg/kg/injection, schedule: Q01DX005 (ip), vehicle: saline 98 % of control

CN1CCCN(C)C1
inactive: [6] 100 % of control | [7] 100 % of control | [8] 93 % of control | [9] 88 % of control

O=C(O)C1(C(=O)O)CCC1c1ccccc1 (centres undefined)
inactive: dose: 100.0 mg/kg/injection, schedule: Q01DX001 (ip), vehicle: saline 94 % of control | dose: 200.0 mg/kg/injection, schedule: Q01DX001 (ip), vehicle: saline 113 % of control | dose: 400.0 mg/kg/injection, schedule: Q01DX001 (ip), vehicle: saline 102 % of control

CC1CC(C#N)C(CCC#N)CC1C (centres undefined)
inactive: dose: 100.0 mg/kg/injection, schedule: Q01DX009 (ip), vehicle: Klucel (hydroxypropylcellulose) (HPC) 104 % of control | [4] 93 % of control | dose: 200.0 mg/kg/injection, schedule: Q01DX009 (ip), vehicle: Klucel (hydroxypropylcellulose) (HPC) 106 % of control | [5] 102 % of control | [10] 100 % of control

O=c1[nH]nc(N/N=C/c2ccccc2)n1/N=C/c1ccccc1
inactive: [4] 100 % of control | [5] 96 % of control | [10] 94 % of control

CC(C#N)(Nc1ccccc1)c1ccc(Br)cc1 (centres undefined)
inactive: [4] 95 % of control | [5] 95 % of control | [10] 95 % of control

C[n+]1ncc2ccccc2c1Cc1ccc(Br)cc1
inactive: dose: 6.25 mg/kg/injection, schedule: Q01DX009 (ip), vehicle: other 98 % of control and 103 % of control | dose: 6.25 mg/kg/injection, schedule: Q04DX002 (ip), vehicle: carboxymethylcellulose (CMC) 91 % of control | dose: 12.5 mg/kg/injection, schedule: Q01DX009 (ip), vehicle: other 108 % of control and 86 % of control | dose: 12.5 mg/kg/injection, schedule: Q04DX002 (ip), vehicle: carboxymethylcellulose (CMC) 106 % of control | dose: 25.0 mg/kg/injection, schedule: Q04DX002 (ip), vehicle: carboxymethylcellulose (CMC) 91 % of control | dose: 25.0 mg/kg/injection, schedule: Q04DX002 (ip), vehicle: other 100 % of control and 90 % of control

FC(F)(CI)C(F)(F)C(F)(F)CI
inactive: dose: 100.0 mg/kg/injection, schedule: Q01DX001 (ip), vehicle: acetone 88 % of control | dose: 200.0 mg/kg/injection, schedule: Q01DX001 (ip), vehicle: acetone 88 % of control | dose: 400.0 mg/kg/injection, schedule: Q01DX001 (ip), vehicle: acetone 88 % of control

O=C1CC(C(=O)O)C(c2ccccc2F)O1 (centres undefined)
inactive: [4] 98 % of control | [5] 101 % of control | [10] 103 % of control

Cc1cc(C)c(C)c(OC(=O)Nc2ccc(Cl)cc2C(F)(F)F)c1
inactive: [6] 92 % of control | [7] 103 % of control | [11] 106 % of control

CCCCCCCC/C=C/CCCCCC1CCCC(C)N1 (centres undefined)
inactive: dose: 6.25 mg/kg/injection, schedule: Q04DX002 (ip), vehicle: saline 96 % of control | dose: 12.5 mg/kg/injection, schedule: Q04DX002 (ip), vehicle: saline 96 % of control | dose: 25.0 mg/kg/injection, schedule: Q04DX002 (ip), vehicle: saline 111 % of control | dose: 50.0 mg/kg/injection, schedule: Q04DX002 (ip), vehicle: saline 90 % of control

Nc1ccccc1SC1CC(=O)N(c2ccc(I)cc2)C1=O (centres undefined)
inactive: dose: 25.0 mg/kg/injection, schedule: Q04DX003 (ip), vehicle: other 88 % of control | dose: 50.0 mg/kg/injection, schedule: Q04DX003 (ip), vehicle: other 91 % of control | dose: 100.0 mg/kg/injection, schedule: Q01DX009 (ip), vehicle: other 94 % of control | dose: 100.0 mg/kg/injection, schedule: Q04DX003 (ip), vehicle: other 93 % of control | dose: 200.0 mg/kg/injection, schedule: Q01DX009 (ip), vehicle: other 102 % of control | dose: 200.0 mg/kg/injection, schedule: Q04DX003 (ip), vehicle: saline 88 % of control | dose: 400.0 mg/kg/injection, schedule: Q01DX009 (ip), vehicle: other 93 % of control | dose: 400.0 mg/kg/injection, schedule: Q04DX003 (ip), vehicle: saline 86 % of control

CCN(CCNC(=O)NC(C)(C)C)c1ccccc1
inactive: [7] 115 % of control and 91 % of control | dose: 100.0 mg/kg/injection, schedule: Q04DX002 (ip), vehicle: saline with Tween-80 96 % of control and 100 % of control | [8] 97 % of control | [11] 97 % of control and 91 % of control | dose: 200.0 mg/kg/injection, schedule: Q04DX002 (ip), vehicle: saline with Tween-80 96 % of control and 97 % of control | [9] 106 % of control | dose: 400.0 mg/kg/injection, schedule: Q01DX009 (ip), vehicle: saline with Tween-80 97 % of control and 88 % of control | dose: 400.0 mg/kg/injection, schedule: Q04DX002 (ip), vehicle: saline with Tween-80 94 % of control and 89 % of control | dose: 400.0 mg/kg/injection, schedule: Q04DX003 (ip), vehicle: saline with Tween-80 92 % of control

CC(C)c1oc2ccccc2c1C(=O)c1ccncc1
inactive: dose: 75.0 mg/kg/injection, schedule: Q04DX003 (ip), vehicle: saline with Tween-80 97 % of control | dose: 150.0 mg/kg/injection, schedule: Q04DX003 (ip), vehicle: saline with Tween-80 101 % of control | dose: 300.0 mg/kg/injection, schedule: Q04DX003 (ip), vehicle: saline with Tween-80 101 % of control

Fc1cc(F)c(CCl)c(F)c1
inactive: dose: 100.0 mg/kg/injection, schedule: Q01DX009 (ip), vehicle: acetone 94 % of control

c1ccc(-c2csc3cccc[n+]23)cc1
inactive: [8] 102 % of control

O=C(NCc1ccncc1)Nc1ccccc1
inactive: [1] 103 % of control | [2] 103 % of control | [3] 106 % of control
